From patent US10766879B2, “Pyrimidine derivatives as kinase inhibitors and their therapeutical applications” (NantBioScience, Inc., priority 2015, dated 2020) come the findings set out here.

The target in one experiment is T1, Abl kinase (Homo sapiens, UniProt P00519).
T1 construct: purchased Millipore (KinaseProfiler Service)
Briefly: KinaseProfiler kinase inhibition assay, Abl. The class given is biochemical. To be noted: 1 μM compound.

In the next experiment the target is T2, Alk kinase (Homo sapiens, UniProt Q9UM73).
T2 construct: purchased Millipore (KinaseProfiler Service)
T2 sequence (Q9UM73 19-1620): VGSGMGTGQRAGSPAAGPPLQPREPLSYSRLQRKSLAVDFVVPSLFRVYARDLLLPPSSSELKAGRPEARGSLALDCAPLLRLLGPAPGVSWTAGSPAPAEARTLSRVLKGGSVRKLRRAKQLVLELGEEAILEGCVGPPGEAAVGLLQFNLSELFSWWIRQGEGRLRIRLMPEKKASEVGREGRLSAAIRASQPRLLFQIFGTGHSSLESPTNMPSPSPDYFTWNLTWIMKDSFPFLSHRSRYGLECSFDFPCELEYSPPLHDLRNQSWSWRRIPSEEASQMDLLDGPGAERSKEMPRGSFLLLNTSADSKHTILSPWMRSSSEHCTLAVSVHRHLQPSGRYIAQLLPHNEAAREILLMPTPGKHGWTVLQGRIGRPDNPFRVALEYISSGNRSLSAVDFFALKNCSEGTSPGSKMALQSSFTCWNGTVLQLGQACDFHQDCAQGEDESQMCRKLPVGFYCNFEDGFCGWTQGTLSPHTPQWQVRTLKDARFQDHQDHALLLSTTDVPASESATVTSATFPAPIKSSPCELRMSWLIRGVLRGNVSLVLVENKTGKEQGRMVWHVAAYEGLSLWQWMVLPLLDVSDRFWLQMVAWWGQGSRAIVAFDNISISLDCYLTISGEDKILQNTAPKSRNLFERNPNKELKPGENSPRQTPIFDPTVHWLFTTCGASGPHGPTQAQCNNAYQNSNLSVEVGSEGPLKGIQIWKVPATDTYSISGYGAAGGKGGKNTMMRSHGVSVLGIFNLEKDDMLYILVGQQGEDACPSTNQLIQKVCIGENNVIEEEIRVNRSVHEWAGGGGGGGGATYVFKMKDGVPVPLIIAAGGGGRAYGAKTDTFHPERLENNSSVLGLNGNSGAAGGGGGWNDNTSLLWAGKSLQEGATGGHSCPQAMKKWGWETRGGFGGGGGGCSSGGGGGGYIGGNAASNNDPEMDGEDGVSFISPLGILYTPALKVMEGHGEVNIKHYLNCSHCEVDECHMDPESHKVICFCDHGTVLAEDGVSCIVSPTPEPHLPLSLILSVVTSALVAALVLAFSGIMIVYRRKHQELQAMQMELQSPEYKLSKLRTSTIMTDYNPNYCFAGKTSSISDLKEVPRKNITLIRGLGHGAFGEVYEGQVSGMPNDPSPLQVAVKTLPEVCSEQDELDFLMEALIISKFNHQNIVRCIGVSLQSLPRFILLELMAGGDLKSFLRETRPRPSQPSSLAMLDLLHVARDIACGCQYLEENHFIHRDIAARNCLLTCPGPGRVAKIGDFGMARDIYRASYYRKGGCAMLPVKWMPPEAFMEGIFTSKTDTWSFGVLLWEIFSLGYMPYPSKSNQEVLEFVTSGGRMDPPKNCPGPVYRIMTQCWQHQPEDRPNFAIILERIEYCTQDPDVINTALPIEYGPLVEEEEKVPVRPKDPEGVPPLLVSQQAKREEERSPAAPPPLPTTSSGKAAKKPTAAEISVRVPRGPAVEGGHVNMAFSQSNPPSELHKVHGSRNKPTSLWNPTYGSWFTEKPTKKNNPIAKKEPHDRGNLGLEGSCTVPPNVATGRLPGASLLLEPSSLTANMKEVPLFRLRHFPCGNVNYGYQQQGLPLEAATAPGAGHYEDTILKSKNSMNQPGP
Briefly: KinaseProfiler kinase inhibition assay, Alk. The class given is biochemical. To be noted: 1 μM compound.

Another experiment addresses T3, c-Src kinase (Homo sapiens, UniProt P12931).
T3 construct: purchased Millipore (KinaseProfiler Service)
Briefly: KinaseProfiler kinase inhibition assay, c-Src. To be noted: 1 μM compound; read-out: % Inhibition @1 μM cSrc. The class given is biochemical.

The target of a further experiment is T4, FGFR1 kinase (Homo sapiens, UniProt P11362).
T4 construct: purchased Millipore (KinaseProfiler Service)
T4 sequence (P11362 22-822): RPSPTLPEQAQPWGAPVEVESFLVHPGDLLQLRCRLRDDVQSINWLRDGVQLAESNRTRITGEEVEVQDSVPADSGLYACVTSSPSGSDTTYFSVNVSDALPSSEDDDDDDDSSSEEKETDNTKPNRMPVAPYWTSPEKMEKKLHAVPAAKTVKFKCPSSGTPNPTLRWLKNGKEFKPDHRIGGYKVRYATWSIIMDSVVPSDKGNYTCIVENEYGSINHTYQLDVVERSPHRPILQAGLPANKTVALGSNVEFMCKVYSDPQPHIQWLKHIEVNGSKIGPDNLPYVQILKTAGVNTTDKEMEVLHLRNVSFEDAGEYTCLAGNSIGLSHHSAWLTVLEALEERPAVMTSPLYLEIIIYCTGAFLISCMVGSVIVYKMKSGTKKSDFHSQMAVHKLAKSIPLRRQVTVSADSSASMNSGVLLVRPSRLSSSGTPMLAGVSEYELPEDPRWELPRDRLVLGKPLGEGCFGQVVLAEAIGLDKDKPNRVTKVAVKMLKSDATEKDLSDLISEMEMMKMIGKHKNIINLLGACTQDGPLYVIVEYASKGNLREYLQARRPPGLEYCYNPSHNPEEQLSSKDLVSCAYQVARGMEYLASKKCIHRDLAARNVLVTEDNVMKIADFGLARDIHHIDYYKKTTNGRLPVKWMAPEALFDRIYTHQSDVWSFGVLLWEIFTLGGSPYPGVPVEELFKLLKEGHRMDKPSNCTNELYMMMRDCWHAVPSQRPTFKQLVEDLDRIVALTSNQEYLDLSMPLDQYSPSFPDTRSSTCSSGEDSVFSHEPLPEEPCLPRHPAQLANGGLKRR
The experiment can be described thus: KinaseProfiler kinase inhibition assay, FGFR1. The class given is biochemical. The settings on record: 1 μM compound.

The target of another experiment is T5, KDR kinase (Homo sapiens, UniProt P35968).
T5 construct: purchased Millipore (KinaseProfiler Service)
T5 sequence (P35968 20-1356): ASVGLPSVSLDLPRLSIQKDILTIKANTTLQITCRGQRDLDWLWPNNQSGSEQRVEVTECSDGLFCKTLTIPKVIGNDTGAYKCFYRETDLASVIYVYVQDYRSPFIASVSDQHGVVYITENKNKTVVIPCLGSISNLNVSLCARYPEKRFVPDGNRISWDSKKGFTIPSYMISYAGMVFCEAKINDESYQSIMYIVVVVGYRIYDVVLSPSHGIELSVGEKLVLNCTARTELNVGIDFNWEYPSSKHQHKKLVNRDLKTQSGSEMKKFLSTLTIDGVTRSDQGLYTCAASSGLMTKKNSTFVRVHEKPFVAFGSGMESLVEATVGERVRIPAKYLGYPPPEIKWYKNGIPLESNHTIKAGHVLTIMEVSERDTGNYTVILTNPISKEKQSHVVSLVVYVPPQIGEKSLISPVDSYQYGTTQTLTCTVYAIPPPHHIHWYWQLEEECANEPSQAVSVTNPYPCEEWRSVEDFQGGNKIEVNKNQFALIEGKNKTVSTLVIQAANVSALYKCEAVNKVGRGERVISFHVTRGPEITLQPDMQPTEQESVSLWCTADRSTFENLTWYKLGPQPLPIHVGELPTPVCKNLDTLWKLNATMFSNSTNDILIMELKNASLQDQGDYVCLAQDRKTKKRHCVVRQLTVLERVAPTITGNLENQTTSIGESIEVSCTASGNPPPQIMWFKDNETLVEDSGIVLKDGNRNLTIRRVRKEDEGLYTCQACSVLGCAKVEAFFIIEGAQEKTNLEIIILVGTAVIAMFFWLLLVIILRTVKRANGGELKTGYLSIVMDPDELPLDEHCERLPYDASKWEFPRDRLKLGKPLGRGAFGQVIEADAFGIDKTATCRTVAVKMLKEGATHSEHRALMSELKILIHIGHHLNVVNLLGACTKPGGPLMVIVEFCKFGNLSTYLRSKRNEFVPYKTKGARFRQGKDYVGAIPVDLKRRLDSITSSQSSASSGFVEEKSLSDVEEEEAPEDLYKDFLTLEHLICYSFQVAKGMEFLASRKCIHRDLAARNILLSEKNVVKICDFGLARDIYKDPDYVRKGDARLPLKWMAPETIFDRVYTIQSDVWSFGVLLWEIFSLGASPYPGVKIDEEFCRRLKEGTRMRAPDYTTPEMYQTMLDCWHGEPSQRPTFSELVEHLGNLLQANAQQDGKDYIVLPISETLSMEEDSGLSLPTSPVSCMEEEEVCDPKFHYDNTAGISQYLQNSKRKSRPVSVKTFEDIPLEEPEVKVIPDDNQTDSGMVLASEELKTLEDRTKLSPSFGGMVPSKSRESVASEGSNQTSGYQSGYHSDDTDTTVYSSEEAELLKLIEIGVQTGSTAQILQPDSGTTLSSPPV
Briefly: KinaseProfiler kinase inhibition assay, KDR. Format: biochemical. The settings on record: 1 μM compound.

The target of another experiment is T6, Ret kinase (Homo sapiens, UniProt P07949).
T6 construct: purchased Millipore (KinaseProfiler Service)
The experiment can be described thus: KinaseProfiler kinase inhibition assay, Ret. The class given is biochemical. To be noted: 1 μM compound.

In the next experiment the target is T7, Tie2 (Homo sapiens, UniProt Q02763).
T7 construct: purchased Millipore (KinaseProfiler Service)
The experiment can be described thus: KinaseProfiler kinase inhibition assay, Tie2. The class given is biochemical. To be noted: 1 μM compound.

For a further experiment, the system named is AN3_CA. Briefly: CellTiterblue viability, 72 hr, AN3_CA. Format: cell-based. The settings on record: Homo sapiens, AN3-CA, AN3_CA cells. Put shortly: (§1)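 After 72 hr drug exposure of 1000 cells/well at 37° C, CellTiterblue is applied for 3 hr and fluorescence taken; GI50 reported.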
On the technique in general: Alamar Blue is a resazurin reagent that responds to reducing activity.

In another experiment the test system is Kato III. Briefly: CellTiterblue viability, 72 hr, Kato III. Format: cell-based. To be noted: Homo sapiens, Kato III cells. The procedure, abridged:
as §1

The next experiment deals with KG1a. The experiment can be described thus: CellTiterblue viability, 72 hr, KG1a. Format: cell-based. The settings on record: Homo sapiens, KG-1a, KG1a cells. As to the method: (§2) A number of studies were performed to analyze the consequences of tyrosine kinase inhibition in cell lines. To do this, 1000 cells are seeded in 27 μl/well in 384-well microplates, which are then placed in a humidified CO2 incubator at 37° C. overnight. The next day, 3 μl/well of 10× concentrated drug is added and the plates are returned to the incubator for 72 hr. After 72 hr incubation, plates are removed and […] CellTiterblue (Promega) viability reagent is added. Plates are returned to the incubator for 3 hr, after which it is fluorescence measurements are read on the Victor X3 plate reader (Perkin Elmer). Data are analyzed using Excel (Microsoft), and GI50 values are determined using Prism (Graphpad).

For a further experiment, the system named is RT112. Briefly: CellTiterblue viability, 72 hr, RT112. Format: cell-based. The settings on record: Homo sapiens, RT-112, RT112 cells. As to the method: as §2
For another experiment, the target named is T8, phospho-FGFR2 (Homo sapiens, UniProt P21802).
T8 construct: endogenous in cells; host or cells: Kato III cells
T8 sequence (P21802 22-766 isoform P21802-8 limits assumed): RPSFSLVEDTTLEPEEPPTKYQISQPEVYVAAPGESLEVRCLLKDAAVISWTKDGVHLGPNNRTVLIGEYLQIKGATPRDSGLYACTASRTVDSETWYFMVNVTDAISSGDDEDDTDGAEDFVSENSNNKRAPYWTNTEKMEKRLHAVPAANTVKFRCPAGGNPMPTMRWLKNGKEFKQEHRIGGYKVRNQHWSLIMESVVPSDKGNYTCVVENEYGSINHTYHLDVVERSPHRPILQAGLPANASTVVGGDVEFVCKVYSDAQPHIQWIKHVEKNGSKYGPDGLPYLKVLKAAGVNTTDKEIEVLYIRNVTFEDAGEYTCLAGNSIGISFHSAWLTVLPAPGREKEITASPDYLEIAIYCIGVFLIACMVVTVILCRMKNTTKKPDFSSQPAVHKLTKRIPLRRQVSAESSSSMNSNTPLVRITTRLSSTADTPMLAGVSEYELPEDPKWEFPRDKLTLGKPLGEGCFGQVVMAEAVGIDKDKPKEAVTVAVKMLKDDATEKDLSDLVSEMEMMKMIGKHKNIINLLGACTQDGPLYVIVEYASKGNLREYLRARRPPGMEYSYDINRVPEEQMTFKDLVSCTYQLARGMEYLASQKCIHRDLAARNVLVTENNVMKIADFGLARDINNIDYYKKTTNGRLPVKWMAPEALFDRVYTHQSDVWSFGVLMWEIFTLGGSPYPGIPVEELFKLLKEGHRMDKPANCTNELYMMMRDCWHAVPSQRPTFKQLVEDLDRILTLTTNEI
Briefly: phospho-FGFR ELISA on Kato III cells. The class given is cell-based. To be noted: read-out: EC50 (nM) P-FGFR2, Kato III cells. As to the method: For the phospho-FGFR, the following assay Protocol was used. 25,000 cells are seeded in 90 μl/well in 96-well microplates, which are then placed in a humidified CO2 incubator at 37° C. overnight. 96-well ELISA plates (Mesoscale Discovery) are coated with capture antibody (R&D Systems Duo-Set) at 4 μg/ml, 30 μl/well. The next day, 10 μl/well of 10× concentrated drug is added and the plates are returned to the incubator for […]. ELISA plates are washed using an automated plate washer (BioTek Instruments). After 30 min, cells are inverted and gently tapped to remove excess medium, and immediately placed on ice. 30 μl mPer cell lysis reagent (Thermo Scientific) with protease and phosphatase inhibitors is added/well. After 15 min on ice, lysates are mixed and 30 μl transferred to the ELISA plate. Plates are incubated for 2 hr, washed, and 30 μl/well detection antibody is added. After 1 hr, plates are washed and 30 μl “SulfoTag” (MesoScale Discovery) detection reagent is added. After 1 hr, plates are washed and 150 μl/well read solution is added. Electrochemiluminescence is determined on the Mesoscale Discovery Sector Imager 2000. Data are analyzed using Excel (Microsoft), and EC50 values are determined using Prism (Graphpad).
In general terms: An ELISA detects its analyte on a solid surface through an enzyme-linked reagent.

T3 sequence (P12931 whole entry): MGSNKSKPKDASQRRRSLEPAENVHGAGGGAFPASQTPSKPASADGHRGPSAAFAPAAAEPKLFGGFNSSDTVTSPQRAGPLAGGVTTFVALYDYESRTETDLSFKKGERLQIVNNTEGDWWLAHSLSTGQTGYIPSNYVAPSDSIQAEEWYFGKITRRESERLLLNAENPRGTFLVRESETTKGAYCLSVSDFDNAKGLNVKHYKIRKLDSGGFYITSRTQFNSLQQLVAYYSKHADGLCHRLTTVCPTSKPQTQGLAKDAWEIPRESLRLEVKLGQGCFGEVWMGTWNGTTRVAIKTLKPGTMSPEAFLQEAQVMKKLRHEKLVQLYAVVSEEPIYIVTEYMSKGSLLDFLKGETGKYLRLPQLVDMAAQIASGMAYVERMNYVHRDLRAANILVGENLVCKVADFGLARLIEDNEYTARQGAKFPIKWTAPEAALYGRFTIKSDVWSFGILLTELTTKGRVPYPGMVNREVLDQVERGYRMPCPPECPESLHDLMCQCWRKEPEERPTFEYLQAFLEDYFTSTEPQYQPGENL

On to `Cc1cc2c(F)c(Oc3cc(N4CCN(c5ccc(N)cc5F)CC4)ncn3)ccc2[nH]1` [Example 10], for which the inhibition at 1 µM was 13% at Abl kinase; 40% on Alk kinase; 8% at c-Src kinase; -4% against FGFR1 kinase; 20% against KDR kinase; -19% against Ret kinase. The inhibition at 1 µM on Tie2 was -12%. Besides, the GI50 in the experiment with AN3_CA is 33 nM; with Kato III it was 142 nM; with KG1a, greater than 100 nM; with RT112, greater than 100 nM. Further, the EC50 at phospho-FGFR2 was greater than 100 nM.
As to `Cc1cc2c(F)c(Oc3cc(Nc4ccc(N5CCN(C)CC5)cc4)ncn3)ccc2[nH]1` [Example 2], the inhibition at 1 µM at Abl kinase worked out at 45%; against Alk kinase, 3%; at c-Src kinase, 47%; against FGFR1 kinase, 102%; on KDR kinase it was 97%; at Ret kinase, 75%. The inhibition at 1 µM against Tie2 was 58%. In addition, the GI50 is 490 nM in the experiment with AN3_CA, 165 nM in the experiment on Kato III, greater than 100 nM in the experiment on KG1a and greater than 100 nM with RT112. Also, on phospho-FGFR2, the half-maximal effective concentration (EC50) worked out at 88 nM.
For the molecule `Cc1cc2c(F)c(Oc3cc(Nc4ccc(N5CCN(C)CC5)c(F)c4)ncn3)ccc2[nH]1` [Example 14], the inhibition at 1 µM against Abl kinase worked out at 32%; on Alk kinase, 53%; on c-Src kinase, 35%; against FGFR1 kinase it was 97%; against KDR kinase it was 97%; at Ret kinase it was 48%. Besides, the inhibition at 1 µM against Tie2 was determined as 31%. Besides, the concentration for 50% growth inhibition (GI50) in the experiment on AN3_CA is 483 nM; with Kato III it was greater than 500 nM; with KG1a, greater than 100 nM; in the experiment on RT112, greater than 100 nM. Further, the 50% effective concentration (EC50) on phospho-FGFR2 is greater than 100 nM.
Turning to `COc1ccc(-c2cc(Nc3cc(Oc4ccc5[nH]c(C)cc5c4F)ncn3)n[nH]2)cc1OC` [Example 5], the inhibition at 1 µM is 63% against Abl kinase; -10% at Alk kinase; 65% at c-Src kinase; 93% on FGFR1 kinase; 97% at KDR kinase; 77% against Ret kinase. The inhibition at 1 µM at Tie2 worked out at 45%. Also, the concentration for 50% growth inhibition (GI50) with AN3_CA is 211 nM; with Kato III, greater than 500 nM; with KG1a it was greater than 100 nM; in the experiment on RT112 it was greater than 100 nM. For the same molecule, on phospho-FGFR2, the EC50 was greater than 100 nM.
With `CCN1CCN(c2ccc(Nc3ncnc(Oc4ccc5[nH]c(C)cc5c4F)c3F)cc2)CC1` [Example 25], the inhibition at 1 µM against Abl kinase was 7%; on Alk kinase, 69%; at c-Src kinase, 11%; at FGFR1 kinase, 96%; against KDR kinase it was 95%; at Ret kinase it was -11%. Besides, the inhibition at 1 µM on Tie2 stood at 0%. Further, the GI50 in the experiment on AN3_CA was greater than 500 nM; in the experiment on Kato III it was greater than 500 nM; with KG1a, greater than 100 nM; with RT112, greater than 100 nM. At phospho-FGFR2, the half-maximal effective concentration (EC50) was greater than 100 nM.
For the molecule `Cc1cc2c(F)c(Oc3cc(Nc4ccc(N5CCN(C)CC5)cn4)ncn3)ccc2[nH]1` [Example 15], the inhibition at 1 µM against Abl kinase was determined as 84%; against Alk kinase it was 32%; on c-Src kinase, 78%; against FGFR1 kinase, 100%; on KDR kinase, 97%; against Ret kinase, 79%. Also, the inhibition at 1 µM at Tie2 is 82%. For the same molecule, the GI50 with AN3_CA was 332 nM; in the experiment with Kato III, 290 nM; with KG1a, greater than 100 nM; in the experiment with RT112, greater than 100 nM. Moreover, on phospho-FGFR2, the EC50 was 36 nM.

Usually inhibition stands for the drop in the measured response relative to a control, in per cent. By GI50 is commonly meant the concentration that inhibits growth by half. A high value points to less potent growth inhibition. What is called EC50 is the concentration at which the effect is half-maximal.
